Measured values: PubChem BioAssay (NCI)
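Method: 48-hour compound exposure of cells in 96-well plates, five concentrations, linear interpolation of endpoints. Abbreviation: GI50, concentration required for 50% inhibition of growth. Definition used: TGI = concentration required for complete inhibition of growth.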

What was measured:
Assay in all cases: DTP human tumour cell line panel, 48 h
M14 melanoma = test system: M14 melanoma
SK-MEL-28 melanoma = test system: SK-MEL-28 melanoma
SW-620 colon = test system: SW-620 colon
HCT-15 colon = test system: HCT-15 colon
IGROV1 ovarian = test system: IGROV1 ovarian
MOLT-4 leukemia = test system: MOLT-4 leukemia
SK-OV-3 ovarian = test system: SK-OV-3 ovarian
SN12C renal = test system: SN12C renal

SMILES: CCCCCCCCCCC/C(=N/O)c1ccc(O)c2ncccc12
- TGI (M14 melanoma): 4.8 µM
- TGI (SK-MEL-28 melanoma): > 100 µM
- TGI (SW-620 colon): > 100 µM

SMILES: Clc1ccc(Cl)c2[s+]snc12
- TGI (HCT-15 colon): > 65.5 µM
- TGI (IGROV1 ovarian): > 100 µM
- TGI (M14 melanoma): > 100 µM
- TGI (MOLT-4 leukemia): > 100 µM
- TGI (SK-MEL-28 melanoma): > 100 µM
- TGI (SK-OV-3 ovarian): > 100 µM
- TGI (SN12C renal): > 100 µM
- TGI (SW-620 colon): > 51.9 µM

SMILES: COc1ccc(C=C2C(=O)OC(C)(C)OC2=O)cc1OC
- TGI (HCT-15 colon): > 100 µM
- TGI (IGROV1 ovarian): > 100 µM
- TGI (M14 melanoma): > 100 µM
- TGI (MOLT-4 leukemia): > 100 µM
- TGI (SK-MEL-28 melanoma): > 100 µM
- TGI (SK-OV-3 ovarian): > 100 µM
- TGI (SN12C renal): > 100 µM
- TGI (SW-620 colon): > 100 µM

SMILES: O=C1NC(=S)NC(=O)C1=Cc1cc2c(cc1[N+](=O)[O-])OCO2
- TGI (HCT-15 colon): > 100 µM
- TGI (IGROV1 ovarian): > 100 µM
- TGI (M14 melanoma): > 100 µM
- TGI (MOLT-4 leukemia): > 100 µM
- TGI (SK-MEL-28 melanoma): > 100 µM
- TGI (SK-OV-3 ovarian): > 100 µM
- TGI (SN12C renal): > 100 µM
- TGI (SW-620 colon): > 100 µM

SMILES: CCCCCCCCCCCCCCCCCC(=O)OCC(CN(C)CCN(C)C)OC(=O)CCCCCCCCCCCCCCCCC (configuration not stated)
- TGI (HCT-15 colon): > 100 µM
- TGI (IGROV1 ovarian): > 100 µM
- TGI (M14 melanoma): > 100 µM
- TGI (MOLT-4 leukemia): 83.7 µM
- TGI (SK-MEL-28 melanoma): > 100 µM
- TGI (SK-OV-3 ovarian): > 100 µM
- TGI (SN12C renal): > 100 µM
- TGI (SW-620 colon): > 100 µM

SMILES: COC(=O)C1CC(C(=O)OC)c2nc3cc(C)ccc3nc21 (configuration not stated)
- TGI (HCT-15 colon): > 100 µM
- TGI (IGROV1 ovarian): > 100 µM
- TGI (M14 melanoma): > 100 µM
- TGI (MOLT-4 leukemia): > 100 µM
- TGI (SK-MEL-28 melanoma): > 100 µM
- TGI (SK-OV-3 ovarian): > 100 µM
- TGI (SN12C renal): > 100 µM
- TGI (SW-620 colon): > 100 µM

SMILES: N#CC(C(=O)/C(=N/N)C(C#N)c1ccc(Cl)cc1)c1ccc(Cl)cc1 (configuration not stated)
- TGI (HCT-15 colon): > 100 µM
- TGI (IGROV1 ovarian): > 100 µM
- TGI (M14 melanoma): > 100 µM
- TGI (MOLT-4 leukemia): > 100 µM
- TGI (SN12C renal): > 100 µM
- TGI (SW-620 colon): > 100 µM

SMILES: CCOC(=O)CC(=O)Sc1ccccc1
- TGI (IGROV1 ovarian): 26 µM
- TGI (M14 melanoma): 31.7 µM
- TGI (MOLT-4 leukemia): 72.6 µM
- TGI (SK-MEL-28 melanoma): 35 µM
- TGI (SK-OV-3 ovarian): 49.3 µM
- TGI (SN12C renal): 24.6 µM
- TGI (SW-620 colon): 39.4 µM

SMILES: CCCN(CCCCC(NC(C)=O)C(=O)NCc1ccccc1)C(=O)NCCCl (configuration not stated)
- TGI (HCT-15 colon): > 100 µM
- TGI (M14 melanoma): > 100 µM
- TGI (MOLT-4 leukemia): > 100 µM
- TGI (SK-MEL-28 melanoma): > 100 µM
- TGI (SN12C renal): > 100 µM
- TGI (SW-620 colon): > 100 µM

SMILES: Cc1c(/C=N/NS(=O)(=O)c2ccccc2)no[n+]1[O-]
- TGI (HCT-15 colon): > 100 µM
- TGI (IGROV1 ovarian): > 100 µM
- TGI (M14 melanoma): > 100 µM
- TGI (MOLT-4 leukemia): > 100 µM
- TGI (SK-MEL-28 melanoma): > 100 µM
- TGI (SK-OV-3 ovarian): > 100 µM
- TGI (SN12C renal): > 100 µM
- TGI (SW-620 colon): > 100 µM

SMILES: CCOc1ccc(N=Cc2cccc3cccnc23)cc1
- TGI (HCT-15 colon): > 100 µM
- TGI (IGROV1 ovarian): > 100 µM
- TGI (M14 melanoma): > 100 µM
- TGI (MOLT-4 leukemia): > 100 µM
- TGI (SK-MEL-28 melanoma): > 100 µM
- TGI (SK-OV-3 ovarian): > 100 µM
- TGI (SN12C renal): > 100 µM
- TGI (SW-620 colon): > 100 µM

SMILES: Clc1ccc(-n2nnc(C3=NCCN3)c2-c2ccccc2)cc1
- TGI (HCT-15 colon): > 100 µM
- TGI (IGROV1 ovarian): > 100 µM
- TGI (M14 melanoma): > 100 µM
- TGI (MOLT-4 leukemia): > 100 µM
- TGI (SK-MEL-28 melanoma): > 100 µM
- TGI (SK-OV-3 ovarian): > 100 µM
- TGI (SN12C renal): > 100 µM
- TGI (SW-620 colon): > 100 µM

SMILES: COC(=O)C1=C(C)N(NC(N)=O)C2(N)N(NC(N)=O)C(C)=C(C(=O)OC)C12C(=O)OC (configuration not stated)
- TGI (HCT-15 colon): > 100 µM
- TGI (IGROV1 ovarian): > 100 µM
- TGI (M14 melanoma): > 100 µM
- TGI (MOLT-4 leukemia): > 100 µM
- TGI (SK-MEL-28 melanoma): > 100 µM
- TGI (SK-OV-3 ovarian): > 100 µM
- TGI (SN12C renal): > 100 µM
- TGI (SW-620 colon): > 100 µM

SMILES: COc1ccc2[nH]c(-c3ccccn3)cc(=O)c2c1
- TGI (IGROV1 ovarian): > 100 µM
- TGI (M14 melanoma): 90.9 µM
- TGI (MOLT-4 leukemia): > 100 µM
- TGI (SK-MEL-28 melanoma): > 100 µM
- TGI (SK-OV-3 ovarian): > 100 µM
- TGI (SN12C renal): > 100 µM
- TGI (SW-620 colon): > 100 µM

SMILES: [N-]=[N+]=NC(c1cn(C2CC(O)C(CO)O2)c(=O)[nH]c1=O)C(Br)I (configuration not stated)
- TGI (HCT-15 colon): > 100 µM
- TGI (IGROV1 ovarian): > 100 µM
- TGI (M14 melanoma): > 100 µM
- TGI (MOLT-4 leukemia): > 100 µM
- TGI (SK-MEL-28 melanoma): > 100 µM
- TGI (SK-OV-3 ovarian): > 100 µM
- TGI (SN12C renal): > 100 µM
- TGI (SW-620 colon): > 100 µM

SMILES: O=C1C(Cl)C(c2cccc(O)c2)N1n1cnc2ccccc2c1=O (configuration not stated)
- TGI (HCT-15 colon): > 100 µM
- TGI (IGROV1 ovarian): > 100 µM
- TGI (M14 melanoma): > 100 µM
- TGI (MOLT-4 leukemia): > 100 µM
- TGI (SK-MEL-28 melanoma): > 100 µM
- TGI (SK-OV-3 ovarian): > 100 µM
- TGI (SN12C renal): > 100 µM
- TGI (SW-620 colon): > 100 µM

SMILES: CC(O)/C=C/C(CCC(C)CO)C(C)C (configuration not stated)
- TGI (HCT-15 colon): > 100 µM
- TGI (IGROV1 ovarian): > 100 µM
- TGI (M14 melanoma): > 100 µM
- TGI (MOLT-4 leukemia): > 100 µM
- TGI (SK-MEL-28 melanoma): > 100 µM
- TGI (SK-OV-3 ovarian): > 100 µM
- TGI (SN12C renal): > 100 µM
- TGI (SW-620 colon): > 100 µM

SMILES: O=C1C=C[C@@]23CC1C(O)C[C@H]2C=Cc1ccccc13 (some centres not stated)
- TGI (HCT-15 colon): > 100 µM
- TGI (IGROV1 ovarian): > 100 µM
- TGI (M14 melanoma): > 100 µM
- TGI (MOLT-4 leukemia): > 100 µM
- TGI (SK-OV-3 ovarian): > 100 µM
- TGI (SN12C renal): > 100 µM
- TGI (SW-620 colon): > 100 µM

SMILES: [Cl][Bi]([O]c1ccccn1)[O]c1ccccn1
- GI50 (HCT-15 colon): > 100 µM
- TGI (HCT-15 colon): > 100 µM
- GI50 (IGROV1 ovarian): > 100 µM
- TGI (IGROV1 ovarian): > 100 µM
- GI50 (M14 melanoma): > 100 µM
- TGI (M14 melanoma): > 100 µM
- GI50 (SK-MEL-28 melanoma): > 100 µM
- TGI (SK-MEL-28 melanoma): > 100 µM
- GI50 (SK-OV-3 ovarian): > 100 µM
- TGI (SK-OV-3 ovarian): > 100 µM
- GI50 (SN12C renal): > 100 µM
- TGI (SN12C renal): > 100 µM
- GI50 (SW-620 colon): > 100 µM
- TGI (SW-620 colon): > 100 µM

SMILES: CCN1C2=NC(=O)N(C)C(=O)C2(Cl)C(C(SC)S(=O)(=O)c2ccc(C)cc2)c2ccccc21 (configuration not stated)
- TGI (IGROV1 ovarian): > 100 µM
- TGI (M14 melanoma): 52.5 µM
- TGI (MOLT-4 leukemia): 13.3 µM
- TGI (SK-MEL-28 melanoma): 67.9 µM
- TGI (SK-OV-3 ovarian): > 100 µM
- TGI (SN12C renal): > 100 µM
- TGI (SW-620 colon): > 100 µM

SMILES: O=c1n(C2CCCCC2)c(=C(Cl)Cl)c(=C(Cl)Cl)n1C1CCCCC1
- TGI (HCT-15 colon): > 100 µM
- TGI (IGROV1 ovarian): > 100 µM
- TGI (MOLT-4 leukemia): > 100 µM
- TGI (SK-MEL-28 melanoma): > 100 µM
- TGI (SK-OV-3 ovarian): > 100 µM
- TGI (SN12C renal): > 100 µM
- TGI (SW-620 colon): > 100 µM

SMILES: CSc1nc(NC2OCC(OC(C)=O)C(OC(C)=O)C2OC(C)=O)c2c(OC(C)=O)c(C)c(=O)oc2n1 (configuration not stated)
- TGI (HCT-15 colon): > 100 µM
- TGI (IGROV1 ovarian): > 100 µM
- TGI (M14 melanoma): > 100 µM
- TGI (MOLT-4 leukemia): > 100 µM
- TGI (SK-OV-3 ovarian): > 100 µM
- TGI (SN12C renal): > 100 µM
- TGI (SW-620 colon): > 100 µM
